Marks after values point to notes of the source that are not given here.
Assays:
Type in all cases: cell-based
CX3CR1 = target: T1, CX3CR1 (Homo sapiens, UniProt P49238); experiment: NanoBiT β-arrestin-1 recruitment, receptor selectivity panel, CX3CR1; settings: higher concentrations (3 μM, 10 μM); FIG. 3 sections B and C
T1 construct: expressed in transfected cells; host or cells: U87
T1 sequence (P49238 1-355): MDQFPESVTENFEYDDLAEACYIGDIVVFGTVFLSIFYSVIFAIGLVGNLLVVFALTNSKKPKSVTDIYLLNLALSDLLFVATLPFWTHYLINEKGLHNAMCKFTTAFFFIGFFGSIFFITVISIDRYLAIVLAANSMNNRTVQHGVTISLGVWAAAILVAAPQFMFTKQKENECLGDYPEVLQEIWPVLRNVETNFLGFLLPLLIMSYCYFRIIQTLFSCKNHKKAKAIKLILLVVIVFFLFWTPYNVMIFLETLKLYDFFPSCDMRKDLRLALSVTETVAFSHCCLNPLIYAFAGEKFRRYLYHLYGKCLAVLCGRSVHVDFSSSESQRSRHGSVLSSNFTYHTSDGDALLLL
Procedure: (§1) To further assess the selectivity profile of the compounds of the invention towards ACKR3, the ability to activate the 21 classical and 4 atypical chemokines receptors and related receptors was tested using the NanoBiT assay based β-arrestin-1 recruitment described previously. The 4 classical opioid receptors described above were also included in the experimental setup. The compounds WW-1 (conolidine) and WW-12 were tested at three different concentrations, 1 μM, 3 μM and 10 μM.
(§2) This possible off-target effect was further characterized by comparing the ability of the two molecules to activate receptors ACKR4, CX3CR1 and CCR3 with reference ligands for the receptors, namely CCL19, CX3CL1 and CCL13.
(§3) Ligand-induced β-arrestin recruitment to chemokine and opioid receptors was monitored by NanoLuc complementation assay (NanoBiT, Promega). […] Ligand-induced, β-arrestin to GPCRs was evaluated with a Mithras LB940 luminometer (Berthold Technologies, running on MicroWin 2010 5.19 software (Mikrotek Laborsysteme)) for 20 minutes.
(§4) For single dose screening experiments on all chemokine receptors(FIG. 3), the results are represented as percentage of signal monitored with 100 nM of one known agonist chemokine listed in the IUPHAR repository of chemokine receptor ligands which was added as positive control.

DOR = DOR (Homo sapiens, UniProt P41143); experiment: DOR calcium mobilization agonist/antagonist screen (CHO-RD-HGA16 cells); design: host or cells: CHO-RD-HGA16; settings: single concentration; for Emax: CHO-RD-HGA16, agonist screen, control agonist DPDPE
Procedure: (§5) Compounds were evaluated for kappa (KOR), mu (MOR), and delta (DOR) opioid receptor agonist and antagonist activity in three individual cell lines overexpressing Gαq16 (CHO-RD-HGA16, Molecular Devices) and the human kappa, mu, and delta opioid receptors, respectively. The day before the assay, cells were plated into 96-well black-walled assay plates at 30,000 cells/well in Ham's F12 supplemented with 10% fetal bovine serum, and 100 units of penicillin and streptomycin. The cells were incubated overnight at 37° C., 5% CO2. Prior to the assay, Calcium 5 dye (Molecular Devices) was reconstituted according to the manufacturer's instructions. The reconstituted dye was diluted 1:40 in pre-warmed (37° C.) assay buffer (1×HBSS, 20 mM HEPES, 2.5 mM probenecid, pH 7.4 at 37° C.). Growth medium was removed and the cells were gently washed with 100 μL of pre-warmed (37° C.) assay buffer. The cells were incubated for 45 minutes at 37° C., 5% CO2 in 200 μL of the diluted Calcium 5 dye. For the agonist screen, a single concentration of each test compound and receptor-specific controls (U69,593, DAMGO, and DPDPE for KOR, MOR, and DOR, respectively) were prepared at 10× the desired final concentration in 1% DMSO/assay buffer, aliquoted into a 96-well polystyrene plate, and warmed to 37° C. After the dye-loading incubation period, pretreatment solution was added to each well (25 μL of 9% DMSO/assay buffer) and, after 15 min, the plate was read with a FlexStation II (Molecular Devices). Calcium-mediated changes in fluorescence were monitored every 1.52 seconds over a 60 second time period, with the FlexStation II adding 50 μL of test compounds at the 19 second time point (excitation at 485 nm, detection at 525 nm). Peak kinetic reduction (SoftMax, Molecular Devices) relative fluorescence units (RFU) were used to calculate % control agonist Emax with the equation % Emax=(test compound RFU/control agonist RFU)×100. For the antagonist screens, the same procedure was followed except that the pretreatment solution consisted of the test compounds (prepared at […] the desired final concentration in 9% DMSO/assay buffer) and the FlexStation added the EC60 concentration (prepared at 10× the desired final concentration in 1% DMSO/assay buffer) of each respective control agonist. Peak RFU were used to calculate % control EC60 inhibition with the equation % inhibition=((EC60 RFU−test compound RFU)/EC60 RFU)×100. When IC50 determinations were made, the same antagonist screen procedure was followed except that cells were pretreated with 8-pt concentration-response curves of the test compounds. Peak RFU were plotted against the log of compound concentration using non-linear regression analysis to generate IC50 values (GraphPad Prism). Each test sample was analyzed in duplicate in two independent experiments.

CCR3 = target: T2, CCR3 (Homo sapiens, UniProt P51677); experiment: NanoBiT β-arrestin-1 recruitment, receptor selectivity panel, CCR3; settings: higher concentrations (3 μM, 10 μM); FIG. 3 sections B and C
T2 construct: expressed in transfected cells; host or cells: U87
T2 sequence (P51677 1-355): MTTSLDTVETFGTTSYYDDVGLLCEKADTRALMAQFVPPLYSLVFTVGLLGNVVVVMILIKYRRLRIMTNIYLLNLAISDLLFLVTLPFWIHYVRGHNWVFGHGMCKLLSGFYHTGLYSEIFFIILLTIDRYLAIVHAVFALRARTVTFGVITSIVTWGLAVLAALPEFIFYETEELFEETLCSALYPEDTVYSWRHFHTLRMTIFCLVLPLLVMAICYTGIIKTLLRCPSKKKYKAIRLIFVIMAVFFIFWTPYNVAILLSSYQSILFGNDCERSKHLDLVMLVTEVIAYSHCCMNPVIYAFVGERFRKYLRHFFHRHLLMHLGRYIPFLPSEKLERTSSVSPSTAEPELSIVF
Procedure: as §1, §2, §3, §4

KOR = KOR (Homo sapiens, UniProt P41145); experiment: KOR calcium mobilization agonist/antagonist screen (CHO-RD-HGA16 cells); design: host or cells: CHO-RD-HGA16; settings: single concentration; for Emax: CHO-RD-HGA16, agonist screen, control agonist U69,593; for KOR Calcium % U69, 593 Inhibition: antagonist screen, vs EC60 of U69,593
Procedure: as §5

Sequence of DOR (P41143 whole entry): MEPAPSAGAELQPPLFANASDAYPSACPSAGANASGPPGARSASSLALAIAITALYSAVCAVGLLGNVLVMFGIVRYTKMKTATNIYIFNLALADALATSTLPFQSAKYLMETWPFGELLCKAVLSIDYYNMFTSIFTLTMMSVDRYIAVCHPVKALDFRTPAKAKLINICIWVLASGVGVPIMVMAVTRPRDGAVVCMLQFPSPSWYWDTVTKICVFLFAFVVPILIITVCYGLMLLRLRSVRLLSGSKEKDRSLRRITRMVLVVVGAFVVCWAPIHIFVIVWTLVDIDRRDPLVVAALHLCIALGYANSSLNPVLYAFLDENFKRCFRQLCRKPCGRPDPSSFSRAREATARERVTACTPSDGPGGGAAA
Sequence of KOR (P41145 whole entry): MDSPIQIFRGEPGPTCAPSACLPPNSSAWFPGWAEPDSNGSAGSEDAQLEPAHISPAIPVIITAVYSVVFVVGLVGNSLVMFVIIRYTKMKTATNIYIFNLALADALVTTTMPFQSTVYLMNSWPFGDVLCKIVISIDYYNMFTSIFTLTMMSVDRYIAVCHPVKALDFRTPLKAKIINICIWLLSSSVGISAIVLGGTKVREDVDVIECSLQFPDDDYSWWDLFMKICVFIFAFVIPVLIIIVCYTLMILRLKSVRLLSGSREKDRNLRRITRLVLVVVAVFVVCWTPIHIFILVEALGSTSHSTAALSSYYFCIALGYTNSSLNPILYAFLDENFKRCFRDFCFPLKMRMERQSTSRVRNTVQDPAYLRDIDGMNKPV

Structure (SMILES) | activation of CX3CR1 (β-arrestin-1 recruitment) in receptor panel (CX3CR1) | Emax (DOR) [%] | DOR Calcium % DPDPE Inhibition (DOR; antagonist screen, vs EC60 of DPDPE) [%] | activation of CCR3 (β-arrestin-1 recruitment) in receptor panel (CCR3) | Emax (KOR) [%] | KOR Calcium % U69, 593 Inhibition (KOR)
C/C=C1/CN2CC[C@H]1C(=O)c1[nH]c3ccccc3c1C2 [WW-1, (4E,5R)-4-ethylidene-1,4,5,7-tetrahydro-2,5-ethanoazocino[4,3-b]indol-6(3H)-one] | weak activation | 0 | 22 | weak activation | 9 | 11%
C/C=C1/CN(CCCCC)CC[C@H]1C(=O)c1cc2ccccc2[nH]1 [WW-12, [(3E,4R)-3-ethylidene-1-pentylpiperidin-4-yl](1H-indol-2-yl)methanone] | weak activation | 6 |  | weak activation | 7 | 69** %

Source: patent US20240059688A1, “CONOLIDINE ANALOGUES AS SELECTIVE ACKR3 MODULATORS FOR THE TREATMENT OF CANCER” (Luxembourg Institute of Health (LIH), priority 2020, published 2024)
